One series has as its system patients. Particulars: gastrointestinal side-effects being a primary issue; cited from earlier work.
For series [1] the following is noted: cited from earlier work.
Series [2] concerns subjects with type 1 diabetes. In words: 52-week clinical trial: basal insulin + prandial TI Inhalation Powder vs basal insulin + SC insulin aspart. It counts as in vivo, human. An excerpt:
A Prospective, Multi-Center, Open-Label, Randomized, Controlled Clinical Trial Comparing the Efficacy and Safety in Subjects with Type 1 Diabetes Receiving SC Basal Insulin and Prandial Inhalation of Insulin-FDKP Versus SC Basal and Prandial Insulin Over a 52-Week Treatment Period and a 4-Week Follow-Up
This was a prospective, multi-country, multicenter, open label, randomized, controlled clinical trial comparing glycemic control in subjects with type 1 diabetes receiving basal insulin and prandial insulin-FDKP (TI) Inhalation Powder (TI Inhalation Powder group) with subjects receiving basal insulin and SC rapid-acting insulin aspart (comparator group). This study included a 52-week treatment phase and a 4-week follow-up phase. During the 4-week follow-up phase, pulmonary function and select clinical laboratory assessments were scheduled.
The study began with enrollment at Week −3. Subjects received a complete battery of safety and eligibility assessments, including HbA1c and fasting plasma glucose (FPG).
At Week −1, subjects were randomized to one of the following 2 treatments: • Basal insulin+prandial TI Inhalation Powder • Basal insulin+prandial SC rapid-acting insulin
At Week −1, subjects again completed the first three components of the Insulin Treatment Questionnaire (ITQ) for the purpose of assessing test-retest reliability only). After completing the questionnaire, subjects randomized to the TI Inhalation Powder group were trained on the MEDTONE® Inhaler using TECHNOSPHERE®/insulin (insulin-FDKP) inhalation powder; subjects in the comparator group were trained in the use of the NOVOLOG® pens; all subjects were trained in administration of LANTUS®. Additionally, all subjects were trained on a blood glucose monitoring (HBGM) meter provided at the beginning of the trial and diary and received diabetes education. Any training was repeated at Week 0, if needed.
At the beginning of the treatment phase, subjects had several titration/dose evaluation visits to adjust insulin therapy. Titration visits occurred once a week for the first 4 weeks. During Weeks 4 through 10, there were three telephone “visits” (at Week 6, Week 8, and Week 10) to titrate dose, if necessary. However, dose titration was allowed throughout the trial.
All subjects completed a 7-point blood glucose profile on any 3 days during the week immediately preceding each visit from Week 0 to Week 52. The 7 time points included samples from before breakfast and 2 hours after breakfast, before the mid-day meal and 2 hours after the mid-day meal, before the evening meal and 2 hours after the evening meal and at bedtime (7 time points a day, over 3 days). These blood glucose (BG) values were recorded in the HBGM diary that was collected at clinic visits. The diaries for Weeks 4 through 10 (during dose titration) which were discussed over the telephone were collected at the next office visits.
A meal challenge test was performed at Week 4 (during dose titration), Week 26, and Week 52. Meal challenge venous blood sampling times were: −30, 0, 30, 60, 90, 105, 120, 180, 240, 300, and 360 minutes. Blood glucose (BG) was also measured using HBGM glucose meters to aid the Investigator in treatment decisions and values were obtained at −30, 0, 60, and 120 minutes during the meal challenge.
Treatments for glycemic control used in the trial were the following: prandial insulin-FDKP (TI) inhalation powder, prandial insulin aspart, and basal insulin glargine. Subjects assigned to the TI Inhalation Powder group (TI Inhalation Powder in combination with basal insulin therapy) received sc basal insulin glargine (LANTUS®) once daily (at bedtime) and inhaled TI Inhalation Powder 3 to 4 times a day, immediately before main meals or a snack as based upon clinical need. Adjustment of the TI Inhalation Powder dose and frequency of use to greater than 3 times a day was at the discretion of the Investigator. […]

Series [3] has as its system subjects with type 2 diabetes. It counts as in vivo, human. The protocol:
The insulin-FDKP formulation is administered to the subjects by oral inhalation using a MEDTONE® dry powder inhaler (MannKind Corp.). Following the completion of the meal challenge, the data was analyzed as per the statistical analysis plan. […] The study was amended (A1) and included 12 subjects (10 were reenrolled from the first meal challenge), and only two treatments, which were 10 U lispro and 60 and 90 U TI. The doses were selected based on the relative bioavailability observed following the first meal challenge (OP), where under an assumption of linear kinetics, 10 U lispro and 60 U TI would result in similar exposure. The 90 U dose group was included to assess the effect of the highest dose group of TI studied in Phase 3 trials. Six of the 12 subjects received 60 U TI and the other 6 subjects received 90 U TI. All 12 subjects received 10 U lispro in a crossover fashion. Methods and results below are described in terms of the Original Protocol (OP), which includes the meal challenge in 18 subjects with three treatments (EXUBERA®, lispro and TI) and Amendment 1 (A1), which includes 12 subjects treated with only TI and lispro. […] The subjects were screened and evaluated before, during and after the experiments and their data analyzed as described below. Subjects were selected based on several key inclusion criteria, including, male and female, having ≥18 and ≤70 years of age with clinical diagnosis of type 2 diabetes mellitus for ≥12 months. The subjects selected for the study also had stable anti-diabetic regimen with insulin for the previous 3 months; HbA1c ≤8.5%; Body Mass Index (BMI) between ≤34 kg/m^2 and ≥25 kg/m^2; urine cotinine ≤100 ng/mL; […] Criteria for exclusion from the study also included unstable diabetes control and/or evidence of serious complications of diabetes (e.g., autonomic neuropathy); serum creatinine >1.8 mg/dL in female subjects and >2.0 mg/dL in male subjects. Other clinically important pulmonary disease was confirmed by documented history or pulmonary function testing. Under OP, the study was planned to be a randomized, open label, 3-way cross-over study. […] At this analysis all patients at least had completed the meal challenge visits and only those data have been used. The screening visit(s) (V1) occurred 1 to 21 days before the first treatment visit (V2) with 7 to 21 days elapsing between treatment-visits (V2, V3, and V4) for the meal challenge test. A minimum of 8 weeks elapsed between V4 and the next treatment visit, (V6). An additional safety visit (V5) was scheduled 1-3 days prior to the first of 3 glucose clamp procedures (V6). The glucose clamp procedure occurred at 3 visits, Visits V6, V7, and V8, with 7 to 21 days elapsing between the visits. […] Each treatment visit during the meal challenge had the subjects hospitalized in the clinical unit the night before initiation of treatment. […] Each subject followed the same randomization order for the glucose-clamp procedures as for the meal challenge tests. During the study, periodic blood draws for determination of pharmacokinetic and/or pharmacodynamic parameters, and safety were taken beginning at 12 hours prior to onset of the treatment regimens and meal challenge, and thereafter for a period of 8 hours. […] Meal Challenge Test: BOOST PLUS® (12 fl. oz.) consisting of 67.5 g carbohydrate, 21 g protein, 21 g fat, energy content 540 kcal was used for the meal challenge test. The BOOST PLUS® was enriched with U-^13C-glucose to determine the amount of absorbed glucose. Concurrent enriched continuous infusion of 6,6-^2H2 glucose was used to assess endogenous glucose production EGP. […] Under OP, the dose for insulin lispro was selected based on information obtained from the regulatory label. The dose selected for EXUBERA® was obtained by means of back calculation of the most commonly used dose information presented to the FDA Advisory Committee in the EXUBERA® Briefing Document. […]

For series [4], the system named is subjects with type 2 diabetes. It counts as in vivo, human. The protocol:
Following the completion of the meal challenge, the data was analyzed as per the statistical analysis plan. […] The study was amended (A1) and included 12 subjects (10 were reenrolled from the first meal challenge), and only two treatments, which were 10 U lispro and 60 and 90 U TI. The doses were selected based on the relative bioavailability observed following the first meal challenge (OP), where under an assumption of linear kinetics, 10 U lispro and 60 U TI would result in similar exposure. The 90 U dose group was included to assess the effect of the highest dose group of TI studied in Phase 3 trials. Six of the 12 subjects received 60 U TI and the other 6 subjects received 90 U TI. All 12 subjects received 10 U lispro in a crossover fashion. Methods and results below are described in terms of the Original Protocol (OP), which includes the meal challenge in 18 subjects with three treatments (EXUBERA®, lispro and TI) and Amendment 1 (A1), which includes 12 subjects treated with only TI and lispro. […] The subjects were screened and evaluated before, during and after the experiments and their data analyzed as described below. Subjects were selected based on several key inclusion criteria, including, male and female, having ≥18 and ≤70 years of age with clinical diagnosis of type 2 diabetes mellitus for ≥12 months. The subjects selected for the study also had stable anti-diabetic regimen with insulin for the previous 3 months; HbA1c ≤8.5%; Body Mass Index (BMI) between ≤34 kg/m^2 and ≥25 kg/m^2; urine cotinine ≤100 ng/mL; […] Criteria for exclusion from the study also included unstable diabetes control and/or evidence of serious complications of diabetes (e.g., autonomic neuropathy); serum creatinine >1.8 mg/dL in female subjects and >2.0 mg/dL in male subjects. Other clinically important pulmonary disease was confirmed by documented history or pulmonary function testing. Under A1, the study was planned to be a randomized, open label, 2-way cross-over study. […] Blood glucose concentrations were measured at regular intervals from arterialized venous blood samples. […]
This is another data set of the same source.

Setting [5] is: 52 weeks, with basal insulin glargine.
Where [6] appears, read: subjects with type 1 diabetes, prescribing information.
The mark [7] stands for this setting: OP: 45 U insulin-FDKP, 12 U SC lispro, 4 mg EXUBERA, FIG. 6.

Where two headings read alike, the source gives them in different places.

As for `CN(C)C(=N)N=C(N)N` [metformin], in the series with patients, the “Patients who cannot tolerate the drug, at least at dosages adequate for acceptable glycemic control” value is listed as “Approximately 30%”.

Turning to “Regular human insulin: regular human insulin preparations for subcutaneous injection, considered short acting”, in series [1] (subcutaneous injection), the “Duration of significant elevation or activity (as long as)” value was 10 to 12 h, the “Time to reach maximal activity” value is 2 to 4 h and the “Time to reach maximal blood insulin concentration” value is 1 to 2 h.

As to “insulin aspart: SC rapid-acting insulin analog (NOVOLOG®), comparator in Example 2”, the “Mean decrease in fasting plasma glucose (FPG) from baseline” value in series [2] (52-week treatment period, with basal insulin glargine) was 23.4 (SD 103.1) mg/dL. Besides, in series [2] (setting [5]), the “Mean fasting plasma glucose (FPG) at the end of the treatment period” value is on record as 161.3 (SD 68.2) mg/dL, the “Percentage of subjects whose HbA1c level decreased to ≤6.5%” value stood at 7.31%, the “Percentage of subjects whose HbA1c level decreased to ≤7.0%” value is given as 15.98% and the “Percentage of subjects whose HbA1c level decreased to ≤8.0%” value was 56.16%. In addition, the HbA1c in series [2] (Week 14, with basal insulin glargine) was 8.07 (SD 1.09) %. In series [2] (over the 52-week treatment period), the “Average body weight gain” value is listed as 1.4 kg. Moreover, in series [1] (setting [6]), the “Median Tmax” value was 0.667 to 0.833 h.

Consider “insulin glulisine: rapid acting insulin analog (APIDRA®)”, for which, in series [1] (both type 1 and type 2 populations, prescribing information), the “Range of Tmax” value was 0.667 to 2 h. Besides, the “Median Tmax” value in series [1] (setting [6]) was 1 h; in series [1] (subjects with type 2 diabetes, prescribing information), 1.67 h.

For orientation: Tmax means the time at which the peak concentration occurs. “insulin lispro: rapid acting insulin analog, subcutaneously administered (HUMALOG®, Eli Lilly & Co.)”: the “Time of peak inhibition of endogenous glucose production after treatment” value in series [3] (OP: 45 U insulin-FDKP, 12 U SC lispro, 4 mg EXUBERA, FIG. 5) is listed as “about 80 minutes”. For the same molecule, the “Time after dosing at which glucose disappearance rate peaked” value is listed as “about 120 minutes” in series [3] (setting [7]) and “about 100 minutes” in series [4] (10 U lispro SC, FIG. 11). In series [3] (setting [7]), the “Time post dosing at which glucose disappearance rate was substantial / departed from baseline” value is “about 30 minutes”. Besides, in series [3] (OP: 45 U insulin-FDKP, 12 U SC lispro, 4 mg EXUBERA, after the initial phase), the “Time post-treatment at which (further) glucose infusion was needed to remain above 90 mg/dL” value was roughly 3 h. The “Median tmax of insulin concentration” value in series [3] (human, in vivo, sc, 4 mg) came to 1.25 h; in series [4] (human, in vivo, sc) it was 1 h. The “Total insulin exposure, greater than following either 45 U insulin-FDKP (TI) or 4 mg EXUBERA” value in series [3] (in vivo) is “approximately 40%”. The “Time of peak inhibition of endogenous glucose production following dosing” value in series [4] (10 U lispro SC, FIG. 10) was “about 100 minutes”. The Tmax in series [1] (prescribing information) is 0.5 to 1.5 h.

(Values after patent publication US11998591B2, “Method of treating diabetes type 2 by administering ultrarapid acting insulin” (MannKind Corporation, priority 2008, dated 2024).)
